In PubChem BioAssay (NCI):
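Exposure lasted 48 hours, with cells grown in 96-well plates and compounds tested at five concentrations. TGI: concentration producing complete growth inhibition.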

Experiments:
Assay in all cases: NCI tumour cell line growth inhibition, 48 h
786-0 renal = tested on: 786-0 renal
A498 renal = tested on: A498 renal
A549 NSCLC = tested on: A549 NSCLC
ACHN renal = tested on: ACHN renal
BT-549 breast = tested on: BT-549 breast
CAKI-1 renal = tested on: CAKI-1 renal
CCRF-CEM leukemia = tested on: CCRF-CEM leukemia
COLO 205 colon = tested on: COLO 205 colon
DU-145 prostate = tested on: DU-145 prostate
EKVX NSCLC = tested on: EKVX NSCLC
HCC-2998 colon = tested on: HCC-2998 colon
HCT-116 colon = tested on: HCT-116 colon
HCT-15 colon = tested on: HCT-15 colon
HL-60(TB) leukemia = tested on: HL-60(TB) leukemia
HOP-62 NSCLC = tested on: HOP-62 NSCLC
HOP-92 NSCLC = tested on: HOP-92 NSCLC
HS 578T breast = tested on: HS 578T breast
HT29 colon = tested on: HT29 colon
IGROV1 ovarian = tested on: IGROV1 ovarian
K-562 leukemia = tested on: K-562 leukemia
KM12 colon = tested on: KM12 colon
LOX IMVI melanoma = tested on: LOX IMVI melanoma
M14 melanoma = tested on: M14 melanoma
MALME-3M melanoma = tested on: MALME-3M melanoma
MCF7 breast = tested on: MCF7 breast
MDA-MB-231 breast = tested on: MDA-MB-231 breast
MDA-MB-435 = tested on: MDA-MB-435
MDA-N = tested on: MDA-N
MOLT-4 leukemia = tested on: MOLT-4 leukemia
NCI-H226 lung = tested on: NCI-H226 lung
NCI-H23 lung = tested on: NCI-H23 lung
NCI-H460 lung = tested on: NCI-H460 lung
NCI-H522 lung = tested on: NCI-H522 lung
NCI/ADR-RES ovarian = tested on: NCI/ADR-RES ovarian
OVCAR-3 ovarian = tested on: OVCAR-3 ovarian
OVCAR-4 ovarian = tested on: OVCAR-4 ovarian
OVCAR-5 ovarian = tested on: OVCAR-5 ovarian
OVCAR-8 ovarian = tested on: OVCAR-8 ovarian
PC-3 prostate = tested on: PC-3 prostate
RPMI-8226 leukemia = tested on: RPMI-8226 leukemia
SF-268 CNS = tested on: SF-268 CNS
SF-295 CNS = tested on: SF-295 CNS
SF-539 CNS = tested on: SF-539 CNS
SK-MEL-2 melanoma = tested on: SK-MEL-2 melanoma
SK-MEL-28 melanoma = tested on: SK-MEL-28 melanoma
SK-MEL-5 melanoma = tested on: SK-MEL-5 melanoma
SK-OV-3 ovarian = tested on: SK-OV-3 ovarian
SN12C renal = tested on: SN12C renal
SNB-19 CNS = tested on: SNB-19 CNS
SNB-75 CNS = tested on: SNB-75 CNS
SR leukemia = tested on: SR leukemia
SW-620 colon = tested on: SW-620 colon
T-47D breast = tested on: T-47D breast
TK-10 renal = tested on: TK-10 renal
U251 CNS = tested on: U251 CNS
UACC-257 melanoma = tested on: UACC-257 melanoma
UACC-62 melanoma = tested on: UACC-62 melanoma
UO-31 renal = tested on: UO-31 renal

With `C=C1CC(C)(COc2cc(=O)oc3ccccc23)OC1=O` (stereo not drawn) the TGI (786-0 renal) was 11.8 µM, the TGI (A498 renal) was 8.74 µM and the TGI (A549 NSCLC) was 28.2 µM. It also gave a TGI (ACHN renal) of 15.8 µM, a TGI (BT-549 breast) of 7.89 µM and a TGI (CAKI-1 renal) of 6.32 µM. It also gave a TGI (CCRF-CEM leukemia) of 5.08 µM, a TGI (COLO 205 colon) of 5.81 µM and a TGI (DU-145 prostate) of 19 µM. It also gave a TGI (EKVX NSCLC) of 29.4 µM, a TGI (HCC-2998 colon) of 42.9 µM and a TGI (HCT-116 colon) of 9.64 µM. For the same compound, the TGI (HCT-15 colon) was 13 µM, the TGI (HL-60(TB) leukemia) was 4.83 µM and the TGI (HOP-62 NSCLC) was 42.1 µM. It also gave a TGI (HOP-92 NSCLC) of 3.54 µM, a TGI (HS 578T breast) of 30.8 µM and a TGI (HT29 colon) of 13.3 µM. For the same compound, the TGI (IGROV1 ovarian) was 12.5 µM, the TGI (K-562 leukemia) was 6.45 µM and the TGI (KM12 colon) was 27.3 µM. The TGI (LOX IMVI melanoma) was 11.5 µM, the TGI (M14 melanoma) was 2.95 µM and the TGI (MALME-3M melanoma) was 6.6 µM. The TGI (MCF7 breast) was 4.28 µM, the TGI (MDA-MB-231 breast) was 23.1 µM and the TGI (MDA-MB-435) was 17.7 µM. It also gave a TGI (MDA-N) of 16.3 µM, a TGI (MOLT-4 leukemia) of 7.15 µM and a TGI (NCI-H226 lung) of 29.1 µM. For the same compound, the TGI (NCI-H23 lung) was 11.4 µM, the TGI (NCI-H460 lung) was 27.5 µM and the TGI (NCI-H522 lung) was 5.2 µM. The TGI (NCI/ADR-RES ovarian) was 24 µM, the TGI (OVCAR-3 ovarian) was 16.7 µM and the TGI (OVCAR-4 ovarian) was 16.9 µM. For the same compound, the TGI (OVCAR-5 ovarian) was 22.3 µM, the TGI (OVCAR-8 ovarian) was 24.2 µM and the TGI (PC-3 prostate) was 17.5 µM. The TGI (RPMI-8226 leukemia) was 4.18 µM, the TGI (SF-268 CNS) was 40.5 µM and the TGI (SF-295 CNS) was 30.6 µM. The TGI (SF-539 CNS) was 12.6 µM, the TGI (SK-MEL-2 melanoma) was 11.8 µM and the TGI (SK-MEL-28 melanoma) was 10.8 µM. It also gave a TGI (SK-MEL-5 melanoma) of 14.7 µM, a TGI (SK-OV-3 ovarian) of 22.5 µM and a TGI (SN12C renal) of 21.4 µM. The TGI (SNB-19 CNS) was 35.5 µM, the TGI (SNB-75 CNS) was 21.3 µM and the TGI (SR leukemia) was 11.2 µM. It also gave a TGI (SW-620 colon) of 11.4 µM, a TGI (T-47D breast) of 13.8 µM and a TGI (TK-10 renal) of 5.16 µM. The TGI (U251 CNS) was 28.9 µM, the TGI (UACC-257 melanoma) was 6.1 µM and the TGI (UACC-62 melanoma) was 8.65 µM. It also gave a TGI (UO-31 renal) of 24.8 µM.
